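In this assay, cells in 96-well plates receive the compound at five concentrations for 48 hours. Endpoints are linearly interpolated between the surrounding concentrations. Here, GI50 denotes the concentration required for 50% inhibition of growth.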 The source made the active and inactive calls. Cut-off read from the data, not from the text of the source: active = GI50 up to about 1.1 µM and inactive = higher.
Assays:
Experiment in all cases: growth of human tumour cells (NCI), 48 h
[1] = test system: NCI-H23
[2] = test system: SW-620
[3] = test system: SK-MEL-28
[4] = test system: UACC-257
[5] = test system: MDA-MB-435
[6] = test system: HCC 2998
[7] = test system: ACHN
[8] = test system: HOP-92
[9] = test system: PC-3
[10] = test system: MDA-MB-231
[11] = test system: NCI/ADR-RES
[12] = test system: HCT-116
[13] = test system: A549
[14] = test system: M14
[15] = test system: T47D
[16] = test system: CAKI-1
[17] = test system: OVCAR-3
[18] = test system: SNB-75
[19] = test system: MOLT-4
[20] = test system: RXF 393

Structure (SMILES)	GI50 [1]	GI50 [2]	GI50 [3]	GI50 [4]	GI50 [5]	GI50 [6]	GI50 [7]	GI50 [8]	GI50 [9]	GI50 [10]	GI50 [11]	GI50 [12]	GI50 [13]	GI50 [14]	GI50 [15]	GI50 [16]	GI50 [17]	GI50 [18]	GI50 [19]	GI50 [20]
CC1=CC(=O)/C(=C/NC(=S)c2ccccc2)C(=O)O1	> 100 µM (inactive)	> 100 µM (inactive)	> 100 µM (inactive)	> 100 µM (inactive)	> 100 µM (inactive)	> 100 µM (inactive)	> 100 µM (inactive)	> 100 µM (inactive)	> 100 µM (inactive)	> 100 µM (inactive)	> 100 µM (inactive)	> 100 µM (inactive)	> 100 µM (inactive)	> 100 µM (inactive)	> 100 µM (inactive)	> 100 µM (inactive)	> 100 µM (inactive)	> 100 µM (inactive)	> 100 µM (inactive)	–
COC(=O)CCNC(=O)OCc1ccccc1	> 100 µM (inactive)	> 100 µM (inactive)	> 100 µM (inactive)	> 100 µM (inactive)	> 100 µM (inactive)	> 100 µM (inactive)	> 100 µM (inactive)	–	> 100 µM (inactive)	> 100 µM (inactive)	> 100 µM (inactive)	> 100 µM (inactive)	> 100 µM (inactive)	> 100 µM (inactive)	> 100 µM (inactive)	> 100 µM (inactive)	> 100 µM (inactive)	> 100 µM (inactive)	> 100 µM (inactive)	–
Brc1ccc(-c2[nH]c3ccccc3c2/C=N\Nc2ccc(-c3nc4ccccc4[nH]3)cc2)cc1	< 0.01 µM (active)	< 0.01 µM (active)	–	3.17 µM (inactive)	< 0.01 µM (active)	< 0.01 µM (active)	< 0.01 µM (active)	–	< 0.01 µM (active)	< 0.01 µM (active)	< 0.01 µM (active)	< 0.01 µM (active)	< 0.01 µM (active)	< 0.01 µM (active)	> 56.4 µM (inactive)	< 0.01 µM (active)	< 0.01 µM (active)	–	< 0.01 µM (active)	< 0.01 µM (active)
CC1(C)NC2C(=O)c3c([nH]c4ccccc34)[C@]3(C)CCC1CC23 (some centres not stated)	> 100 µM (inactive)	> 100 µM (inactive)	> 100 µM (inactive)	> 100 µM (inactive)	> 100 µM (inactive)	> 100 µM (inactive)	> 100 µM (inactive)	61.7 µM (inactive)	> 100 µM (inactive)	> 100 µM (inactive)	> 100 µM (inactive)	> 100 µM (inactive)	> 100 µM (inactive)	–	21.6 µM (inactive)	> 100 µM (inactive)	> 100 µM (inactive)	> 100 µM (inactive)	59.4 µM (inactive)	> 100 µM (inactive)
[O-][N+](CCO)(CCO)c1ncnc2[nH]cnc12	> 100 µM (inactive)	> 100 µM (inactive)	> 100 µM (inactive)	> 100 µM (inactive)	> 100 µM (inactive)	> 100 µM (inactive)	> 100 µM (inactive)	–	> 100 µM (inactive)	> 100 µM (inactive)	> 100 µM (inactive)	> 100 µM (inactive)	> 100 µM (inactive)	> 100 µM (inactive)	> 100 µM (inactive)	> 100 µM (inactive)	> 100 µM (inactive)	> 100 µM (inactive)	> 100 µM (inactive)	> 100 µM (inactive)
O=C(O)c1ccc2c(c1)CC1(C2)Cc2cc3c(cc2C1=O)CCC3 (configuration not stated)	> 100 µM (inactive)	> 100 µM (inactive)	> 100 µM (inactive)	> 100 µM (inactive)	> 100 µM (inactive)	> 100 µM (inactive)	> 100 µM (inactive)	69 µM (inactive)	> 100 µM (inactive)	> 100 µM (inactive)	> 100 µM (inactive)	> 100 µM (inactive)	69 µM (inactive)	> 100 µM (inactive)	34.4 µM (inactive)	–	> 100 µM (inactive)	56 µM (inactive)	> 100 µM (inactive)	73.5 µM (inactive)
Cc1nnc(N)nc1/C=C\c1cccs1	17.6 µM (inactive)	25.5 µM (inactive)	28.8 µM (inactive)	32.6 µM (inactive)	18 µM (inactive)	14.6 µM (inactive)	15 µM (inactive)	18.4 µM (inactive)	17.2 µM (inactive)	87.3 µM (inactive)	16.7 µM (inactive)	17.3 µM (inactive)	27.7 µM (inactive)	16.2 µM (inactive)	46.9 µM (inactive)	34.2 µM (inactive)	–	–	32.3 µM (inactive)	19.5 µM (inactive)
COc1ccc2c(c1)CN1C(=N2)CSC1c1cc([N+](=O)[O-])ccc1Cl (configuration not stated)	29 µM (inactive)	31 µM (inactive)	–	38.1 µM (inactive)	19.4 µM (inactive)	33.1 µM (inactive)	44.7 µM (inactive)	37.4 µM (inactive)	36.1 µM (inactive)	54.5 µM (inactive)	25.1 µM (inactive)	27.2 µM (inactive)	33.2 µM (inactive)	31.6 µM (inactive)	32.4 µM (inactive)	27.3 µM (inactive)	–	52.1 µM (inactive)	29.2 µM (inactive)	26.2 µM (inactive)

Source: ChEMBL document CHEMBL1201862, “PubChem BioAssay data set” (2004)
